Measurements taken from patent publication US4868290A, “4'-Deoxy-3"-demethoxy-3"-methylenedesmycosin derivatives and synthetic intermediates thereof” (Toyo Jozo Kabushiki Kaisha, priority 1987, dated 1989).
≈ marks a conversion by molar mass, not a printed value. Where two headings read alike, the source gives them in different places.

How the values were obtained:
Type in all cases: cell-based
Staph. aureus 0119 = experiment: MIC, Staph. aureus 0119; settings: Staphylococcus aureus
Excerpt: (§1) The minimum inhibitory concentration (MIC) of compounds (1) according to the present invention is illustrated in Table 1.

Staph. aureus MS353C36 = experiment: MIC, Staph. aureus MS353C36 (erythromycin resistant strain); settings: Staphylococcus aureus
Excerpt: as §1

Staph. aureus 0127 = experiment: MIC, Staph. aureus 0127; settings: Staphylococcus aureus
Excerpt: as §1

Staph. aureus MS353 AO = experiment: MIC, Staph. aureus MS353 AO; settings: Staphylococcus aureus, MS353AO
Excerpt: as §1

Staph. aureus MS353 = experiment: MIC, Staph. aureus MS353; settings: Staphylococcus aureus
Excerpt: as §1

Staph. aureus 0126 = experiment: MIC, Staph. aureus 0126; settings: Staphylococcus aureus
Excerpt: as §1

Strept. pyogenes N.Y.5 = experiment: MIC, Strept. pyogenes N.Y.5; settings: Streptococcus pyogenes
Excerpt: as §1

[1] = tested on: Bacillus subtilis ATCC6633; experiment: MIC, Bacillus subtilis ATCC6633
Excerpt: as §1

[2] = tested on: Coryne. diphtheriae P.W.8; experiment: MIC, Coryne. diphtheriae P.W.8; settings: Corynebacterium diphtheriae
Excerpt: as §1

Strept. agalactiae 1020 = experiment: MIC, Strept. agalactiae 1020; settings: Streptococcus agalactiae
Excerpt: as §1

Staph. aureus Smith = experiment: MIC, Staph. aureus Smith; settings: Staphylococcus aureus
Excerpt: as §1

E. coli NIHJ JC-2 = experiment: MIC, E. coli NIHJ JC-2; settings: Escherichia coli, NIHJJC2
Excerpt: as §1

Strept. pyogenes 1022 = experiment: MIC, Strept. pyogenes 1022; settings: Streptococcus pyogenes
Excerpt: as §1

[3] = tested on: Micrococcus luteus ATCC9341; experiment: MIC, Micrococcus luteus ATCC9341
Excerpt: as §1

[4] = tested on: Enterococcus faecalis 1501; experiment: MIC, Enterococcus faecalis 1501
Excerpt: as §1

Staph. aureus ATCC6538P = experiment: MIC, Staph. aureus ATCC6538P; settings: Staphylococcus aureus
Excerpt: as §1

[5] = Staph. aureus MS353, read-out: MIC
[6] = Staph. aureus 0126, read-out: MIC
[7] = Staph. aureus Smith, read-out: MIC

Structure (SMILES) | MIC (Staph. aureus 0119) | MIC (Staph. aureus MS353C36) | MIC (Staph. aureus 0127) | MIC (Staph. aureus MS353 AO) | MIC (Staph. aureus MS353; MS353) | MIC (Staph. aureus 0126; 0126) | MIC (Strept. pyogenes N.Y.5) | MIC [1] | MIC [2] | MIC (Strept. agalactiae 1020) | MIC (Staph. aureus Smith) | MIC (E. coli NIHJ JC-2) | MIC (Strept. pyogenes 1022) | MIC [3] | MIC [4] | MIC (Staph. aureus ATCC6538P) | MIC (Staph. aureus MS353; [5]) | MIC (Staph. aureus 0126; [6]) | MIC (Staph. aureus Smith; [7])
CCC1OC(=O)CC(O)C(C)C(OC2OC(C)C(O)C(N(C)C)C2O)C(CC=O)CC(C)C(=O)/C=C/C(C)=C/C1COC1OC(C)C(O)C(OC)C1OC (stereo not shown) [Des, Desmycosin (4'-demycarosyltylosin), reference compound] | > 100 µg/mL | 1.56 µg/mL (≈ 2.02 µM) | > 100 µg/mL | 100 µg/mL (≈ 130 µM) | 1.56 µg/mL (≈ 2.02 µM) | 1.56 µg/mL (≈ 2.02 µM) | 0.1 µg/mL (≈ 0.13 µM) | 0.78 µg/mL (≈ 1.01 µM) | 0.1 µg/mL (≈ 0.13 µM) | 0.2 µg/mL (≈ 0.259 µM) | 1.56 µg/mL (≈ 2.02 µM) | > 100 µg/mL | > 100 µg/mL | 0.2 µg/mL (≈ 0.259 µM) | 0.78 µg/mL (≈ 1.01 µM) | 0.78 µg/mL (≈ 1.01 µM) | – | – | –
C=C1CC(C)OC(OCC2/C=C(C)/C=C/C(=O)C(C)CC(C)C(OC3OC(C)CC(N(C)C)C3O)C(C)C(O)CC(=O)OC2CC)C1OC (stereo not shown) [Compound 4, 4',4"-di-deoxy-3"-demethoxy-3"-methylene-19-deformyldesmycosin] | > 100 µg/mL | 0.2 µg/mL (≈ 0.288 µM) | 100 µg/mL (≈ 144 µM) | > 100 µg/mL | – | – | 0.1 µg/mL (≈ 0.144 µM) | 0.1 µg/mL (≈ 0.144 µM) | ≤ 0.05 µg/mL | ≤ 0.05 µg/mL | – | > 100 µg/mL | 3.13 µg/mL (≈ 4.51 µM) | ≤ 0.05 µg/mL | 0.39 µg/mL (≈ 0.562 µM) | 0.1 µg/mL (≈ 0.144 µM) | 0.2 µg/mL (≈ 0.288 µM) | 0.78 µg/mL (≈ 1.12 µM) | 0.39 µg/mL (≈ 0.562 µM)
CCC1OC(=O)CC(O)C(C)C(OC2OC(C)CC(N(C)C)C2O)C(C)CC(C)C(=O)/C=C/C(C)=C/C1COC1OC(C)C=C(OC)C1OC (stereo not shown) [Compound 2, 4',4"-dideoxy-3",4"-di-dehydro-19-deformyldesmycosin] | > 100 µg/mL | 0.2 µg/mL (≈ 0.282 µM) | > 100 µg/mL | > 100 µg/mL | – | – | 0.2 µg/mL (≈ 0.282 µM) | 0.1 µg/mL (≈ 0.141 µM) | 0.2 µg/mL (≈ 0.282 µM) | 0.39 µg/mL (≈ 0.549 µM) | – | > 100 µg/mL | > 100 µg/mL | ≤ 0.05 µg/mL | 1.56 µg/mL (≈ 2.2 µM) | 0.2 µg/mL (≈ 0.282 µM) | 0.2 µg/mL (≈ 0.282 µM) | 6.25 µg/mL (≈ 8.8 µM) | 0.39 µg/mL (≈ 0.549 µM)
CCC1OC(=O)CC(O)C(C)C(OC2OC(C)C(O)C(N(C)C)C2O)C(C)CC(C)C(=O)/C=C/C(C)=C/C1COC1OC(C)CC(=O)C1OC (stereo not shown) [Compound 1, 4"-deoxy-3"-demethoxy-3"-oxo-19-deformyldesmycosin] | > 100 µg/mL | 0.39 µg/mL (≈ 0.548 µM) | > 100 µg/mL | > 100 µg/mL | – | – | 0.2 µg/mL (≈ 0.281 µM) | 0.1 µg/mL (≈ 0.14 µM) | 0.1 µg/mL (≈ 0.14 µM) | 0.39 µg/mL (≈ 0.548 µM) | – | > 100 µg/mL | 50 µg/mL (≈ 70.2 µM) | 0.2 µg/mL (≈ 0.281 µM) | 1.56 µg/mL (≈ 2.19 µM) | 0.39 µg/mL (≈ 0.548 µM) | 0.39 µg/mL (≈ 0.548 µM) | 1.56 µg/mL (≈ 2.19 µM) | 0.78 µg/mL (≈ 1.1 µM)
C=C1CC(C)OC(OCC2/C=C(C)/C=C/C(=O)C(C)CC(C)C(OC3OC(C)C(O)C(N(C)C)C3O)C(C)C(OC(=O)CC)CC(=O)OC2CC)C1OC (stereo not shown) [Compound 5, 4"-deoxy-3"-demethoxy-3"-methylene-3-0-propionyl-19-deformyldesmycosin] | > 100 µg/mL | 0.78 µg/mL (≈ 1.02 µM) | > 100 µg/mL | > 100 µg/mL | – | – | 0.78 µg/mL (≈ 1.02 µM) | ≤ 0.05 µg/mL | 0.2 µg/mL (≈ 0.261 µM) | 0.2 µg/mL (≈ 0.261 µM) | – | > 100 µg/mL | 100 µg/mL (≈ 131 µM) | 0.2 µg/mL (≈ 0.261 µM) | 1.56 µg/mL (≈ 2.04 µM) | 0.39 µg/mL (≈ 0.509 µM) | 0.78 µg/mL (≈ 1.02 µM) | – | 0.78 µg/mL (≈ 1.02 µM)
C=C1CC(C)OC(OCC2/C=C(C)/C=C/C(=O)C(C)CC(C)C(OC3OC(C)C(O)C(N(C)C)C3O)C(C)C(OC(=O)N(C)C)CC(=O)OC2CC)C1OC (stereo not shown) [Compound 6, 4"-deoxy-3"-demethoxy-3"-methylene-3-0-dimethylcarbamoyl-19-deformyldesmycosin] | > 100 µg/mL | 0.78 µg/mL (≈ 0.999 µM) | > 100 µg/mL | > 100 µg/mL | – | – | 0.78 µg/mL (≈ 0.999 µM) | 0.1 µg/mL (≈ 0.128 µM) | 0.1 µg/mL (≈ 0.128 µM) | 0.2 µg/mL (≈ 0.256 µM) | – | > 100 µg/mL | > 100 µg/mL | 0.2 µg/mL (≈ 0.256 µM) | 0.78 µg/mL (≈ 0.999 µM) | 0.39 µg/mL (≈ 0.499 µM) | 0.39 µg/mL (≈ 0.499 µM) | – | 1.56 µg/mL (≈ 2 µM)
C=C1CC(C)OC(OCC2/C=C(C)/C=C/C(=O)C(C)CC(C)C(OC3OC(C)C(O)C(N(C)C)C3O)C(C)C(O)CC(=O)OC2CC)C1OC (stereo not shown) [Compound 3, 4"-deoxy-3"-demethoxy-3"-methylene-19-deformyldesmycosin] | > 100 µg/mL | 0.39 µg/mL (≈ 0.549 µM) | > 100 µg/mL | > 100 µg/mL | – | – | 0.78 µg/mL (≈ 1.1 µM) | 0.1 µg/mL (≈ 0.141 µM) | ≤ 0.05 µg/mL | 0.1 µg/mL (≈ 0.141 µM) | – | > 100 µg/mL | 50 µg/mL (≈ 70.4 µM) | 0.1 µg/mL (≈ 0.141 µM) | 0.78 µg/mL (≈ 1.1 µM) | 0.39 µg/mL (≈ 0.549 µM) | 0.39 µg/mL (≈ 0.549 µM) | – | 1.56 µg/mL (≈ 2.2 µM)
